{"source": "patent US9050341B2", "about": "“Methods of treating drug resistant and other tumors by administering 6,7-dialkoxy quinazoline derivatives” (NATCO PHARMA LIMITED, priority 2009, dated 2015)", "assay_in_all_cases": "KinomeScan kinase profiling", "type_in_all_cases": "binding", "key": {"[1]": {"molecular_target": "T1, TEC (Homo sapiens, UniProt P42680)", "T1 construct": "host or cells: E. coli host derived from the BL21 strain, T7 phage lysate", "in_short": "(§1)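 Kinases were expressed as T7 phage fusions in a BL21-derived E. coli host and the cleared lysates were used. Ligand beads were blocked with biotin and buffer (1% BSA, 0.05% Tween 20, 1 mM DTT). Compounds came from 40× DMSO stocks, and phage in the eluates was titred by qPCR.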"}, "[2]": {"molecular_target": "T2, JNK1 (Homo sapiens, UniProt P45983)", "T2 construct": "host or cells: T7 phage in E. coli host derived from BL21", "in_short": "as §1"}, "[3]": {"molecular_target": "T3, TGFBR2 (Homo sapiens, UniProt P37173)", "T3 construct": "host or cells: E. coli host derived from the BL21 strain, T7 phage lysate", "in_short": "as §1"}, "[4]": {"molecular_target": "T4, SRC (Homo sapiens, UniProt P12931)", "T4 construct": "host or cells: E. coli host derived from the BL21 strain, T7 phage lysate", "T4 sequence (P12931 whole entry)": "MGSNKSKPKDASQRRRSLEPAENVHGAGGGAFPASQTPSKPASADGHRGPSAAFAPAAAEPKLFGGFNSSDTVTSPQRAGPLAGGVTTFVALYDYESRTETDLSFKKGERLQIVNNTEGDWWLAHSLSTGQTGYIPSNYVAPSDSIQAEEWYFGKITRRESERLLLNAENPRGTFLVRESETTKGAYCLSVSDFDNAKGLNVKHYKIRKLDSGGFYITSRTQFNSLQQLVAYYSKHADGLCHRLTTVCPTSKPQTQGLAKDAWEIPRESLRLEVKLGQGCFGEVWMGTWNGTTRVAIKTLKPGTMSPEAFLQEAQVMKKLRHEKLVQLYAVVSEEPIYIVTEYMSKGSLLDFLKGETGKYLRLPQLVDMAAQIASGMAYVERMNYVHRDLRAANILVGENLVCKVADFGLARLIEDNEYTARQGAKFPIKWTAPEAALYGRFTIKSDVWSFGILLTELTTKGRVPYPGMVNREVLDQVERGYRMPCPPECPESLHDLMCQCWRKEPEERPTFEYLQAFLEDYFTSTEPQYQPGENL", "in_short": "as §1"}, "[5]": {"molecular_target": "T5, NDR2 (Homo sapiens, UniProt Q9Y2H1)", "T5 construct": "host or cells: T7 phage in E. coli host derived from BL21", "in_short": "as §1"}, "[6]": {"molecular_target": "T6, CSK (Homo sapiens, UniProt P41240)", "T6 construct": "host or cells: T7 phage in E. coli (BL21-derived)", "in_short": "as §1"}, "[7]": {"molecular_target": "T7, TRKC (Homo sapiens, UniProt Q16288)", "T7 construct": "purchased Ambit Biosciences Corp (KinomeScan); host or cells: E. coli host derived from the BL21 strain (T7 phage lysate)", "in_short": "as §1"}, "[8]": {"molecular_target": "T8, CSNK1A1L (Homo sapiens, UniProt Q8N752)", "T8 construct": "host or cells: T7 phage in E. coli (BL21-derived)", "in_short": "as §1"}, "[9]": {"molecular_target": "T9, TRKB (Homo sapiens, UniProt Q16620)", "T9 construct": "purchased Ambit Biosciences Corp (KinomeScan); host or cells: E. coli host derived from the BL21 strain (T7 phage lysate)", "in_short": "as §1"}, "[10]": {"molecular_target": "T10, TYRO3 (Homo sapiens, UniProt Q06418)", "T10 construct": "purchased Ambit Biosciences Corp (KinomeScan); host or cells: E. coli host derived from the BL21 strain (T7 phage lysate)", "in_short": "as §1"}, "[11]": {"molecular_target": "T11, CHEK2 (Homo sapiens, UniProt O96017)", "T11 construct": "host or cells: T7 phage in E. coli (BL21-derived)", "T11 sequence (O96017 whole entry)": "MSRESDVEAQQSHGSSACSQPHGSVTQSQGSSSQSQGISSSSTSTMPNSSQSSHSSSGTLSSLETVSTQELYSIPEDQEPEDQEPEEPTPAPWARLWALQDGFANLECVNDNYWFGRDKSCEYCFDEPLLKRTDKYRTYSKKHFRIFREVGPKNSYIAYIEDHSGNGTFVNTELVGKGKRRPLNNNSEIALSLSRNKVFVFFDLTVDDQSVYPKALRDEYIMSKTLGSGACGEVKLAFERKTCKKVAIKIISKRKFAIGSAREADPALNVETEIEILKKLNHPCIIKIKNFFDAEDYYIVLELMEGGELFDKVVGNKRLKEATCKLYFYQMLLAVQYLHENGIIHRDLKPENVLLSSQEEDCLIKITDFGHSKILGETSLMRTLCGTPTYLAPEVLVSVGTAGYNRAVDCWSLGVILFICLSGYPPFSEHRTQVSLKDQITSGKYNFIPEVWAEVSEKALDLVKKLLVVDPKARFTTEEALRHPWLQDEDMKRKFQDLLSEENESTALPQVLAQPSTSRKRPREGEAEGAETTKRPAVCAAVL", "in_short": "as §1"}, "[12]": {"molecular_target": "T12, NEK5 (Homo sapiens, UniProt Q6P3R8)", "T12 construct": "host or cells: T7 phage in E. coli host derived from BL21", "T12 sequence (Q6P3R8 whole entry)": "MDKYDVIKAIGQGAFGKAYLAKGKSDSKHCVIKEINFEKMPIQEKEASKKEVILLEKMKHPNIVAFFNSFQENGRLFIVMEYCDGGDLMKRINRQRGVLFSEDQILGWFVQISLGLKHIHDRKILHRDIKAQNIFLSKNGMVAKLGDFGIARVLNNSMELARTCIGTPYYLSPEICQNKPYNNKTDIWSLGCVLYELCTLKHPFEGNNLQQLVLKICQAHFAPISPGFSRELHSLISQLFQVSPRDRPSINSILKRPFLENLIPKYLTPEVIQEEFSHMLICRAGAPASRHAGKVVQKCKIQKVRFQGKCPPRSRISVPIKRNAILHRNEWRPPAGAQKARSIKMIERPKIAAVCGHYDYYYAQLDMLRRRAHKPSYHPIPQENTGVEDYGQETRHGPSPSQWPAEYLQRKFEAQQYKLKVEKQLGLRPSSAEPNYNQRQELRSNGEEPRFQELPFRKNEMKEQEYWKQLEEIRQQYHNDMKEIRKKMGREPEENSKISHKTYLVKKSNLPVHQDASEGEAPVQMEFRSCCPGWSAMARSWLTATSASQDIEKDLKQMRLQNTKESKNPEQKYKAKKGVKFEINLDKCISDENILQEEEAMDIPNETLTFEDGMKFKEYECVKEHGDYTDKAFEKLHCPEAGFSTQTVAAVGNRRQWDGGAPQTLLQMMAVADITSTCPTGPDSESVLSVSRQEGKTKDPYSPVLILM", "in_short": "as §1"}, "[13]": {"molecular_target": "T13, AXL (Homo sapiens, UniProt P30530)", "T13 construct": "purchased Ambit Biosciences Corp (KinomeScan); host or cells: E. coli host derived from the BL21 strain, T7 phage", "T13 sequence (P30530 26-894)": "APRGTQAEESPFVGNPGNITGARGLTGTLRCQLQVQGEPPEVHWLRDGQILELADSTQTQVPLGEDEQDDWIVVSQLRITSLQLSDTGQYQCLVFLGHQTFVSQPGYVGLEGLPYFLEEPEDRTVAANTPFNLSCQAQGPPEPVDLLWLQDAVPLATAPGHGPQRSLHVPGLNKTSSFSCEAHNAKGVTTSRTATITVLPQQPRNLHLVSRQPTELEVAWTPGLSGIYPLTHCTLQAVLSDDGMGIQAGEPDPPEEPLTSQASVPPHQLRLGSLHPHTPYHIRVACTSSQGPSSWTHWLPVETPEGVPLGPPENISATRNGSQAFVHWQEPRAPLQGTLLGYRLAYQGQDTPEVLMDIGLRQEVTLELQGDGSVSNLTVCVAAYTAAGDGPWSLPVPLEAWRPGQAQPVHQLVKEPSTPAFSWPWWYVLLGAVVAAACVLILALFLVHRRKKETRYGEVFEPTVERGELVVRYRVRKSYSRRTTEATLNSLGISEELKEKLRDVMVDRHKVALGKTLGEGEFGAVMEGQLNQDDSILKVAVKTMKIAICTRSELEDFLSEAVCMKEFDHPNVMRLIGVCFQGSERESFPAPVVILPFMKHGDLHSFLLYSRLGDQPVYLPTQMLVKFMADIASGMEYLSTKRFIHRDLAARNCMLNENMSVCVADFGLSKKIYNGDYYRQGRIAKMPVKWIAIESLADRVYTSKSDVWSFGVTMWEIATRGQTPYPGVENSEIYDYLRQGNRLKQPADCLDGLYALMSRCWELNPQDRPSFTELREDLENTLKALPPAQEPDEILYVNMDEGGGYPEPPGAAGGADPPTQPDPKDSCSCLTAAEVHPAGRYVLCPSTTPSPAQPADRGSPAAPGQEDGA", "in_short": "as §1"}, "[14]": {"molecular_target": "T14, RIOK3 (Homo sapiens, UniProt O14730)", "T14 construct": "host or cells: E. coli host derived from BL21, T7 phage lysate", "in_short": "as §1"}, "[15]": {"molecular_target": "T15, SYK (Homo sapiens, UniProt P43405)", "T15 construct": "host or cells: E. coli host derived from the BL21 strain, T7 phage lysate", "in_short": "as §1"}, "[16]": {"molecular_target": "T16, ABL1 (Homo sapiens, UniProt P00519)", "T16 construct": "host or cells: E. coli host derived from BL21 (T7 phage lysate)", "in_short": "as §1"}, "[17]": {"molecular_target": "T17, ADCK3 (Homo sapiens, UniProt Q8NI60)", "T17 construct": "host or cells: E. coli host derived from BL21 (T7 phage lysate)", "T17 sequence (Q8NI60 163-647)": "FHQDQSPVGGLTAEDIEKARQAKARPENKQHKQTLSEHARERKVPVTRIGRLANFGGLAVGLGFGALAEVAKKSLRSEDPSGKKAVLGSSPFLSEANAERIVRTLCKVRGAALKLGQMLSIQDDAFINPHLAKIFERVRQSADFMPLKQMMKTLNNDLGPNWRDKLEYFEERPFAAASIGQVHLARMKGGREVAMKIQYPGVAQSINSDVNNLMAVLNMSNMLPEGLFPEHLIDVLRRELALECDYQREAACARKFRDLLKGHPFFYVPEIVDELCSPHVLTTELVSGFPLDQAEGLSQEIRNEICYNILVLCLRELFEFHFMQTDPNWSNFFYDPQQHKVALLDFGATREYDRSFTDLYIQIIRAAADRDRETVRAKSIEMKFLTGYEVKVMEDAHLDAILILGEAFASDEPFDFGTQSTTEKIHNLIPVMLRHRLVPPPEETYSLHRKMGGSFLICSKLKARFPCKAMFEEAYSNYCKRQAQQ", "in_short": "as §1"}, "[18]": {"molecular_target": "T18, CDK8 (Homo sapiens, UniProt P49336)", "T18 construct": "host or cells: T7 phage in E. coli (BL21-derived)", "T18 sequence (P49336 whole entry)": "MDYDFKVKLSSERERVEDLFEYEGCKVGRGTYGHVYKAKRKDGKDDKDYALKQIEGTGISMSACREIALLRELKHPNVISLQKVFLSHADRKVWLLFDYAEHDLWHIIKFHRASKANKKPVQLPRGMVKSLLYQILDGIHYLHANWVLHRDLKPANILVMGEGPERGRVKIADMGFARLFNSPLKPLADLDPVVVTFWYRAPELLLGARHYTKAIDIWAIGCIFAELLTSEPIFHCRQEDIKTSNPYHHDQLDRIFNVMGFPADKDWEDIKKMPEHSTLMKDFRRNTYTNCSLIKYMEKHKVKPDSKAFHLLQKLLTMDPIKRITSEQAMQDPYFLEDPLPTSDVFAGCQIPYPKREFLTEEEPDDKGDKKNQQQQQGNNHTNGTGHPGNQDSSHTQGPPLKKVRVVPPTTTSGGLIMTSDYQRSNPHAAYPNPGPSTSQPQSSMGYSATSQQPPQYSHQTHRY", "in_short": "as §1"}, "[19]": {"molecular_target": "T19, CAMK1 (Homo sapiens, UniProt Q14012)", "T19 construct": "purchased Ambit Biosciences Corp (KinomeScan); host or cells: E. coli host derived from the BL21 strain, T7 phage", "T19 sequence (Q14012 whole entry)": "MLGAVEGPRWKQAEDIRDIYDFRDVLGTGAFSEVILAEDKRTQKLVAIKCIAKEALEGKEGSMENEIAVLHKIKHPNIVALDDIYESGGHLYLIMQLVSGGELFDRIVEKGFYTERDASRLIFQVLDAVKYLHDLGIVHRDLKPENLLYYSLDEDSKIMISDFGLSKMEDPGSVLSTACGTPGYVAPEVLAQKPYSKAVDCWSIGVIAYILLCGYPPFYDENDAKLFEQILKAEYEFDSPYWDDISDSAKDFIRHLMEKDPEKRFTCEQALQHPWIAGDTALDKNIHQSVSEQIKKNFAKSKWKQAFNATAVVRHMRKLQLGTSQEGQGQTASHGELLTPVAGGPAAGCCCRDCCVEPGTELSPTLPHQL", "in_short": "as §1"}, "[20]": {"molecular_target": "T20, RPS6KA4 (Kin.Dom.-1-N-terminal) (Homo sapiens, UniProt O75676)", "T20 construct": "RPS6KA4 (Kin.Dom.-1-N-terminal); host or cells: E. coli host derived from BL21, T7 phage lysate", "T20 sequence (O75676 33-301 limits assumed)": "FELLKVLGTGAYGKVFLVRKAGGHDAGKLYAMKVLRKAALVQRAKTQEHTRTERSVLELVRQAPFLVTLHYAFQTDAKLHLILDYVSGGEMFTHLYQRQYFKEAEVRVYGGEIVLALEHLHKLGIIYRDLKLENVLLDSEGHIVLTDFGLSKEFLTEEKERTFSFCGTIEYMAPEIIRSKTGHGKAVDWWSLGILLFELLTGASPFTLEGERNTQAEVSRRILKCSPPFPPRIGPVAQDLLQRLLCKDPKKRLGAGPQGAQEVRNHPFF", "in_short": "as §1"}, "[21]": {"molecular_target": "T21, MINK (Homo sapiens, UniProt Q8N4C8)", "T21 construct": "host or cells: E. coli derived from BL21, infected with T7 phage", "in_short": "as §1"}, "[22]": {"molecular_target": "T22, GSK3B (Homo sapiens, UniProt P49841)", "T22 construct": "host or cells: E. coli host derived from BL21, infected with T7 phage", "T22 sequence (P49841 whole entry)": "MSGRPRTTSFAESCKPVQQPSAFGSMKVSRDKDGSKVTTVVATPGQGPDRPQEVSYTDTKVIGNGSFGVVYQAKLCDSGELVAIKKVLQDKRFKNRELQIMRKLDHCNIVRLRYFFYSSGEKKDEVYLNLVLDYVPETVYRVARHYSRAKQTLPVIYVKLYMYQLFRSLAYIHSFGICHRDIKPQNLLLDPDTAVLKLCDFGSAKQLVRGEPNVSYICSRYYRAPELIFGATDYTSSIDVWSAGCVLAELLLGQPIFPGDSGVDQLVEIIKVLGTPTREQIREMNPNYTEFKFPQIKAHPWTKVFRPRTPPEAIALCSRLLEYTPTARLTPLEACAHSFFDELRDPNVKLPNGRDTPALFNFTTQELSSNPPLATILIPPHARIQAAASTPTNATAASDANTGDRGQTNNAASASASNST", "in_short": "as §1"}, "[23]": {"molecular_target": "T23, BRSK2 (Homo sapiens, UniProt Q8IWQ3)", "T23 construct": "purchased Ambit Biosciences Corp (KinomeScan); host or cells: E. coli host derived from the BL21 strain, T7 phage", "in_short": "as §1"}}, "data": [{"molecule": "C#Cc1cccc(Nc2ncnc3cc(OC)c(OCCCN4CCOCC4)cc23)c1", "note": "[NRC-2694, N-(3-ethylnylphenyl)-7-methoxy-6-[3-(4-morpholinyl)propoxy]-4-quinazolinamine]", "values": [{"measurement": "% Ctrl @ 10000 nM", "setting": "[1]", "result": 90, "unit": "% Ctrl"}, {"measurement": "% Ctrl @ 10000 nM", "setting": "[2]", "result": 99, "unit": "% Ctrl"}, {"measurement": "% Ctrl @ 10000 nM", "setting": "[3]", "result": 86, "unit": "% Ctrl"}, {"measurement": "% Ctrl @ 10000 nM", "setting": "[4]", "result": 24, "unit": "% Ctrl"}, {"measurement": "% Ctrl @ 10000 nM", "setting": "[5]", "result": 74, "unit": "% Ctrl"}, {"measurement": "% Ctrl @ 10000 nM", "setting": "[6]", "result": 53, "unit": "% Ctrl"}, {"measurement": "% Ctrl @ 10000 nM", "setting": "[7]", "result": 80, "unit": "% Ctrl"}, {"measurement": "% Ctrl @ 10000 nM", "setting": "[8]", "result": 44, "unit": "% Ctrl"}, {"measurement": "% Ctrl @ 10000 nM", "setting": "[9]", "result": 73, "unit": "% Ctrl"}, {"measurement": "% Ctrl @ 10000 nM", "setting": "[10]", "result": 42, "unit": "% Ctrl"}, {"measurement": "% Ctrl @ 10000 nM", "setting": "[11]", "result": 38, "unit": "% Ctrl"}, {"measurement": "% Ctrl @ 10000 nM", "setting": "[12]", "result": 94, "unit": "% Ctrl"}, {"measurement": "% Ctrl @ 10000 nM", "setting": "[13]", "result": 25, "unit": "% Ctrl"}, {"measurement": "% Ctrl @ 10000 nM", "setting": "[14]", "result": 37, "unit": "% Ctrl"}, {"measurement": "% Ctrl @ 10000 nM", "setting": "[15]", "result": 56, "unit": "% Ctrl"}, {"measurement": "% Ctrl @ 10000 nM", "setting": "[16]", "result": 67, "unit": "% Ctrl"}, {"measurement": "% Ctrl @ 10000 nM", "setting": "[17]", "result": 14, "unit": "% Ctrl"}, {"measurement": "% Ctrl @ 10000 nM", "setting": "[18]", "result": 100, "unit": "% Ctrl"}, {"measurement": "% Ctrl @ 10000 nM", "setting": "[19]", "result": 65, "unit": "% Ctrl"}, {"measurement": "% Ctrl @ 10000 nM", "setting": "[20]", "result": 84, "unit": "% Ctrl"}, {"measurement": "% Ctrl @ 10000 nM", "setting": "[21]", "result": 16, "unit": "% Ctrl"}, {"measurement": "% Ctrl @ 10000 nM", "setting": "[22]", "result": 100, "unit": "% Ctrl"}, {"measurement": "% Ctrl @ 10000 nM", "setting": "[23]", "result": 33, "unit": "% Ctrl"}]}]}
